{
  "source": "paper PMC9715518",
  "about": "“Human and rat microsomal metabolites of N-tert-butoxycarbonylmethamphetamine and its urinary metabolites in rat” (Forensic Toxicology, 2021)",
  "key": {"[1]": {"experiment": "Microsomal metabolism test, human liver microsomes"}, "[2]": {"conditions": "pH 1.5, 37 °C; cited from earlier work"}, "[3]": {"experiment": "Rat administration test, urinary excretion"}, "[4]": {"experiment": "Microsomal metabolism test, rat liver microsomes"}, "[5]": {"conditions": "rat no. 1, urine 0–4 h, BocMA 20 mg/kg i.p."}, "[6]": {"conditions": "rat no. 1, urine 4–8 h, BocMA 20 mg/kg i.p."}, "[7]": {"conditions": "rat no. 1, urine 8–24 h, BocMA 20 mg/kg i.p."}, "[8]": {"conditions": "rat no. 1, urine 24–48 h, BocMA 20 mg/kg i.p."}, "[9]": {"conditions": "rat no. 2, urine 0–4 h, BocMA 20 mg/kg i.p."}, "[10]": {"conditions": "rat no. 2, urine 4–8 h, BocMA 20 mg/kg i.p."}, "[11]": {"conditions": "rat no. 2, urine 8–24 h, BocMA 20 mg/kg i.p."}, "[12]": {"conditions": "rat no. 3, urine 0–4 h, BocMA 20 mg/kg i.p."}, "[13]": {"conditions": "rat no. 3, urine 4–8 h, BocMA 20 mg/kg i.p."}, "[14]": {"conditions": "rat no. 3, urine 8–24 h, BocMA 20 mg/kg i.p."}, "[15]": {"conditions": "rat no. 3, urine 24–48 h, BocMA 20 mg/kg i.p."}, "[16]": {"conditions": "rat no. 3, urine 48–72 h, BocMA 20 mg/kg i.p."}},
  "note": "Several values for one entry are separate records, joined by “and”; a condition that tells them apart may be missing. Equal values may be shown once.",
  "data": [
    {"compound": "CC(Cc1ccccc1)N(C)C(=O)OC(C)(C)C", "note": "(centres unmarked) [BocMA, N-tert-butoxycarbonylmethamphetamine]", "values": [
      {"measurement": "BocMA degraded", "setting": "[1]; HLM, first 8 min", "result": 80, "unit": "%"},
      {"measurement": "ER (extraction ratio)", "setting": "[1]; HLM, mean ± SD, n = 3", "result": "0.90 and 0.90 ± 0.01"},
      {"measurement": "CLint (estimated intrinsic clearance)", "setting": "[1]; HLM, scaled to whole liver, mean ± SD, n = 3", "result": "200 mL/min/kg body wt. and 200 ± 20 mL/min/kg body wt."},
      {"measurement": "CLH (estimated hepatic clearance)", "setting": "[1]; HLM, well-stirred model without protein binding, mean ± SD, n = 3", "result": "19 ± 1", "unit": "mL/min/kg body wt."},
      {"measurement": "half-life at 1 μg/mL", "setting": "[1]; human, microsomes, pH 7.4", "result": "3.2 ± 0.3", "unit": "min"},
      {"measurement": "microsomal CLint at 1 μg/mL", "setting": "[1]; human, microsomes, pH 7.4", "result": "220 ± 20", "unit": "µL/min/mg"},
      {"measurement": "Half-life in model gastric juice solution", "setting": "[2]", "result": 50, "unit": "min"},
      {"measurement": "BocMA absolute amount in urine", "setting": "[3]; average of 3 rats, urine 0–72 h total, BocMA 20 mg/kg i.p.", "result": 16000, "unit": "ng"},
      {"measurement": "BocMA absolute amount in urine", "setting": "[3]; [5]", "result": 87, "unit": "ng"},
      {"measurement": "BocMA concentration in urine", "setting": "[3]; [5]", "result": 58, "unit": "ng/mL"},
      {"measurement": "BocMA absolute amount in urine", "setting": "[3]; rat no. 1, urine 0–72 h total, BocMA 20 mg/kg i.p.", "result": 240, "unit": "ng"},
      {"measurement": "BocMA absolute amount in urine", "setting": "[3]; [6]", "result": 8.9, "unit": "ng"},
      {"measurement": "BocMA concentration in urine", "setting": "[3]; [6]", "result": 8.9, "unit": "ng/mL"},
      {"measurement": "BocMA absolute amount in urine", "setting": "[3]; [7]", "result": 59, "unit": "ng"},
      {"measurement": "BocMA concentration in urine", "setting": "[3]; [7]", "result": 7.4, "unit": "ng/mL"},
      {"measurement": "BocMA absolute amount in urine", "setting": "[3]; [8]", "result": 84, "unit": "ng"},
      {"measurement": "BocMA concentration in urine", "setting": "[3]; [8]", "result": 12, "unit": "ng/mL"},
      {"measurement": "BocMA absolute amount in urine", "setting": "[3]; [9]", "result": 190, "unit": "ng"},
      {"measurement": "BocMA concentration in urine", "setting": "[3]; [9]", "result": 95, "unit": "ng/mL"},
      {"measurement": "BocMA absolute amount in urine", "setting": "[3]; rat no. 2, urine 0–72 h total, BocMA 20 mg/kg i.p.", "result": 310, "unit": "ng"},
      {"measurement": "BocMA absolute amount in urine", "setting": "[3]; [10]", "result": 78, "unit": "ng"},
      {"measurement": "BocMA concentration in urine", "setting": "[3]; [10]", "result": 39, "unit": "ng/mL"},
      {"measurement": "BocMA absolute amount in urine", "setting": "[3]; [11]", "result": 44, "unit": "ng"},
      {"measurement": "BocMA concentration in urine", "setting": "[3]; [11]", "result": 2.9, "unit": "ng/mL"},
      {"measurement": "BocMA absolute amount in urine", "setting": "[3]; [12]", "result": 2700, "unit": "ng"},
      {"measurement": "BocMA concentration in urine", "setting": "[3]; [12]", "result": 5400, "unit": "ng/mL"},
      {"measurement": "BocMA absolute amount in urine", "setting": "[3]; rat no. 3, urine 0–72 h total, BocMA 20 mg/kg i.p.", "result": 15000, "unit": "ng"},
      {"measurement": "BocMA absolute amount in urine", "setting": "[3]; [13]", "result": 4400, "unit": "ng"},
      {"measurement": "BocMA concentration in urine", "setting": "[3]; [13]", "result": 2200, "unit": "ng/mL"},
      {"measurement": "BocMA absolute amount in urine", "setting": "[3]; [14]", "result": 6800, "unit": "ng"},
      {"measurement": "BocMA concentration in urine", "setting": "[3]; [14]", "result": 680, "unit": "ng/mL"},
      {"measurement": "BocMA absolute amount in urine", "setting": "[3]; [15]", "result": 660, "unit": "ng"},
      {"measurement": "BocMA concentration in urine", "setting": "[3]; [15]", "result": 83, "unit": "ng/mL"},
      {"measurement": "BocMA absolute amount in urine", "setting": "[3]; [16]", "result": 810, "unit": "ng"},
      {"measurement": "BocMA concentration in urine", "setting": "[3]; [16]", "result": 90, "unit": "ng/mL"},
      {"measurement": "Excreted BocMA as the unchanged form, share of the administered quantity", "setting": "[3]; rat urine over 72 h, average, n = 3", "result": 0.13, "unit": "%"},
      {"measurement": "Detection in rat urine (LC–QToF–MS)", "setting": "[3]; urine 0–72 h, BocMA 20 mg/kg i.p., n = 3", "result": "detected in urine from all rats"},
      {"measurement": "Incubation time at which peak intensity was highest", "setting": "[4]; RLM test", "result": 0, "unit": "min"},
      {"measurement": "BocMA degraded", "setting": "[4]; RLM, first 3 min", "result": 83, "unit": "%"},
      {"measurement": "ER (extraction ratio)", "setting": "[4]; RLM, mean ± SD, n = 3", "result": "0.92 and 0.92 ± 0.01"},
      {"measurement": "CLint (estimated intrinsic clearance)", "setting": "[4]; RLM, scaled to whole liver, mean ± SD, n = 3", "result": "640 ± 70", "unit": "mL/min/kg body wt."},
      {"measurement": "CLH (estimated hepatic clearance)", "setting": "[4]; RLM, well-stirred model without protein binding, mean ± SD, n = 3", "result": "51 ± 1", "unit": "mL/min/kg body wt."},
      {"measurement": "half-life at 1 μg/mL", "setting": "[4]; rat, microsomes, pH 7.4", "result": "2 ± 0.2", "unit": "min"},
      {"measurement": "microsomal CLint at 1 μg/mL", "setting": "[4]; rat, microsomes, pH 7.4", "result": "360 ± 40", "unit": "µL/min/mg"}
    ]}
  ]
}
